Where two headings read alike, the source gives them in different places.
Assays:
[1] = test system: K562; experiment: Antiproliferative activity, MTT assay, K562; assay type: cell-based; details: Homo sapiens, K562 chronic myeloid leukemia, 72 h
[2] = test system: HeLa; experiment: Antiproliferative activity, MTT assay, HeLa; assay type: cell-based; details: Homo sapiens, HeLa cervix carcinoma, 72 h
[3] = test system: SH-SY5Y; experiment: Antiproliferative activity, crystal violet staining, SH-SY5Y; assay type: cell-based; details: Homo sapiens, SH-SY5Y neuroblastoma, 72 h
[4] = test system: hepatitis B virus (HBV); experiment: microbe, parasite or virus in culture; assay type: cell-based; details: for log reduction at 1 µM / log reduction at 10 µM: Hepatitis B virus, 144 h; for Extracellular HBV DNA (Δlog10): 1 µM, 6 days treatment, conditioned medium (virion production)
[5] = test system: DU145; details: discussed for DU145; cited from earlier work
[6] = test system: HepaRG; experiment: Cytotoxicity towards non-tumor differentiated HepaRG cells, MTT; assay type: cell-based, human; details: concentration decreasing number of viable cells by 50%; for IC50: Homo sapiens
[7] = test system: SARS-CoV-2; experiment: microbe, parasite or virus in culture; assay type: cell-based
[8] = test system: NDV; experiment: microbe, parasite or virus in culture; assay type: cell-based, Newcastle disease virus; details: avian paramyxovirus 1, 48 h, read-out: NDV IC50, µM
[9] = test system: PV1; experiment: microbe, parasite or virus in culture; assay type: cell-based, poliovirus type 1; details: Enterovirus C, 48 h, read-out: PV1 IC50, µM
[10] = Cytotoxicity by MTS assay in MDCK cells; assay type: cell-based; details: dog, read-out: Influenza A Virus CC50
Method: Production of influenza A virus (H1N1) stock and its infection of MDCK cells, as well as infection of Vero E6 cells with SARS-CoV-2, were described previously. Cytotoxicity of the compounds towards MDCK and VeroE6 cells was assessed by seeding 18,000 cells/well of […] plates in 0.1 mL DMEM, treating with the compounds for 66 h, and measuring cell viability by MTS assay. As positive controls, oseltamivir and N-hydroxicytidine were used (obtained from Sigma).
The compounds were added at non-toxic concentrations in serum-free DMEM to the respective cells; one hour later, the serial 10-fold dilutions of influenza virus or SARS-CoV-2 were added in serum-free medium, and antiviral activity was determined by the reduction in the infectious titer of the virus by cytopathic action (CPE). Calculation of 50% cytotoxic concentration (CC50) and 50% effective concentration (IC50) was performed by standard methods using Microsoft Excel 5.0 and GraphPad Prism 8 (GraphPad Software Inc., Boston, MA, USA).

[11] = test system: VV; experiment: microbe, parasite or virus in culture; assay type: cell-based; details: Orthopoxvirus vaccinia, 48 h, read-out: VV IC50, µM
[12] = test system: A549; experiment: Antiproliferative activity, MTT assay, A549; assay type: cell-based; details: Homo sapiens, A549 lung carcinoma, 72 h
[13] = test system: DU145; experiment: Antiproliferative activity, MTT assay, DU145; assay type: cell-based; details: Homo sapiens, DU-145, DU145 prostate carcinoma, 72 h
[14] = test system: HSV-1; experiment: microbe, parasite or virus in culture; assay type: cell-based, herpes simplex virus type 1; details: Human alphaherpesvirus 1, 48 h, read-out: HSV-1 IC50, µM
[15] = test system: Influenza A virus; experiment: microbe, parasite or virus in culture; assay type: cell-based, influenza A virus (H1N1)
[16] = test system: A549 cells; experiment: Intracellular ROS assay, DCFH2-DA in A549 cells; assay type: cell-based; details: A549, 10 µM, 72 h
From the text: As cell death is often triggered by increased production of reactive oxygen species (ROS), the next step was to evaluate if our compounds act as pro-oxidants. ROS production was accessed using cell-permeable redox sensitive DCFH2-DA dye. […] As one of the main sites of ROS production is mitochondria, we also evaluated their membrane potential during treatment with either DO11-46 or DO11-48. […] Lysosome activation often accompany late stages of apoptosis, which is in good accordance with our data on the induction of caspase3/7 activity.
Pro-oxidant activity of the compounds was studied by quantification of ROS production using a cell-permeable fluorogenic probe 2′,7′-dichlorodihydrofluorescein diacetate (DCFH2-DA). A549 cells were seeded on a 48-well plate at a density of 10,000 cells/well. Twenty-four hours later, the compounds were added to 10 µM concentration in quadruplicate, and the cells were kept for 72 h. As a positive control, A549 cells were treated with 1 mM H2O2 for 2 h prior analysis. Then, media were replaced with the fresh FBS-lacking DMEM supplemented with 25 µM DCFH2-DA. After 45 min incubation, the cells were washed 10 times with 500 µL PBS, resuspended in 200 µL PBS and transferred to a black 96-well plate. The fluorescence intensities (FLIs) were measured using CHAMELEON V microplate reader with excitation at 485 nm and emission at 535 nm.

[17] = read-out: Extracellular HBV DNA (Δlog10)
[18] = read-out: Intracellular Total HBV RNA (Δlog10)
[19] = Severe acute respiratory syndrome coronavirus 2, Vero C1008, read-out: SARS-CoV-2 IC50, µM

SMILES: O=c1[nH]cc(F)c(=O)[nH]1 [5-Fluorouracil, reference compound]
- IC50 [1]: 1.3 ± 0.3 µM
- IC50 [2]: 1.2 ± 0.3 µM
- IC50 [3]: 1.5 ± 0.2 µM

SMILES: Nc1ccn([C@@H]2CS[C@H](CO)O2)c(=O)n1 [3TC, Lamivudine, reference compound]
- log reduction at 1 µM [4, 17]: 0.93
- log reduction at 10 µM [4, 17]: 1.04
- log reduction at 1 µM [4, 18]: < 0.5
- log reduction at 10 µM [4, 18]: < 0.5

SMILES: Fc1ccc(C(c2ccc(F)cc2)N2CCNCC2)cc1 [1-bis(4-fluorophenyl)methylpiperazine]
- GI50 [5]: 1.8 µM

SMILES: FC(F)(F)c1ccc(CN2CCNCC2)cc1 [[4-(trifluoromethyl)benzyl]piperazine]
- GI50 [5]: 1.6 µM

SMILES: CNC(=O)c1cc(Oc2ccc(NC(=O)Nc3ccc(Cl)c(C(F)(F)F)c3)cc2)ccn1 [Sorafenib, reference compound]
- IC50 [6]: > 100 µM
- IC50 [3]: 40 ± 10 µM

SMILES: CC1(C)Cc2c(C#N)c(SCC(N)=O)nc(N3CCNCC3)c2CO1 [DO11-37, 2-[(5-Cyano-3,3-dimethyl-8-piperazin-1-yl-3,4-dihydro-1H-pyrano[3,4-c]pyridin-6-yl)thio]acetamide]
- IC50 [7, 19]: > 200 µM
- IC50 [8]: > 300 µM
- IC50 [6]: 968 ± 87.8 µM
- IC50 (µM) HepaRG [6]: almost non-toxic
- IC50 [9]: > 300 µM
- IC50 [1]: 91.4 ± 29.6 µM
- IC50 [2]: 133 ± 38 µM
- CC50 at 66 h [10]: 1680 µM
- IC50 [11]: > 300 µM
- IC50 [12]: 294 ± 35.9 µM
- IC50 [3]: 99.4 ± 21.4 µM
- IC50 [13]: 225 ± 52.4 µM
- IC50 [14]: > 300 µM
- Extracellular HBV DNA (Δlog10) [4]: significantly reduced levels of virion production
- log reduction at 1 µM [4, 17]: 1.97 ± 0.03
- log reduction at 10 µM [4, 17]: 2.32 ± 0.16
- log reduction at 1 µM [4, 18]: < 0.5
- log reduction at 10 µM [4, 18]: < 0.5

SMILES: CCOC(=O)C1=C[C@@H](OC(CC)CC)[C@H](NC(C)=O)[C@@H](N)C1 [Oseltamivir, reference compound]
- Influenza A Virus Δlgmax [15]: 6.0
- IC50 ([15]; Influenza A virus, MDCK, read-out: Influenza A Virus IC50, µM): 0.02 µM
- CC50 at 66 h [10]: > 10 µM

SMILES: CC(=O)c1ccc(NC(=O)CSc2nc(N3CCNCC3)c3c(c2C#N)CC(C)(C)OC3)cc1 [DO11-50, N-(4-acetylphenyl)-2-[(5-cyano-3,3-dimethyl-8-piperazin-1-yl-3,4-dihydro-1H-pyrano[3,4-c]pyridin-6-yl)thio]acetamide]
- SARS-CoV-2 Δlgmax [7]: 0
- IC50 [7, 19]: > 15 µM
- IC50 [8]: > 5 µM
- IC50 [6]: 42.4 ± 8.3 µM
- IC50 [9]: > 5 µM
- IC50 [1]: 45.6 ± 20 µM
- IC50 [2]: 74.5 ± 3.5 µM
- Influenza A Virus Δlgmax [15]: 0
- CC50 at 66 h [10]: 1270 µM
- IC50 [11]: > 5 µM
- IC50 [12]: 45.8 ± 12.6 µM
- IC50 [3]: 13.2 ± 4.3 µM
- IC50 [13]: 26.7 ± 8.4 µM
- IC50 [14]: > 5 µM
- log reduction at 1 µM [4, 17]: < 0.5
- log reduction at 10 µM [4, 17]: < 0.5
- log reduction at 1 µM [4, 18]: < 0.5
- log reduction at 10 µM [4, 18]: < 0.5

SMILES: O=c1nc(NO)ccn1[C@@H]1O[C@H](CO)[C@@H](O)[C@H]1O [N-HydroxyC, N-hydroxicytidine, reference compound]
- SARS-CoV-2 Δlgmax [7]: 5.0
- IC50 ([7]; read-out: SARS-CoV-2 IC50): 0.5 µM

SMILES: CC1(C)Cc2c(C#N)c(SCc3ccccc3Cl)nc(N3CCNCC3)c2CO1 [DO11-42, 6-[(2-Chlorobenzyl)thio]-3,3-dimethyl-8-piperazin-1-yl-3,4-dihydro-1H-pyrano[3,4-c]pyridine-5-carbonitrile]
- SARS-CoV-2 Δlgmax [7]: 0
- IC50 [7, 19]: > 15 µM
- IC50 [8]: > 7.5 µM
- IC50 [6]: 24.5 ± 2.8 µM
- IC50 [9]: > 7.5 µM
- IC50 [1]: 1.5 ± 0.8 µM
- IC50 [2]: 1.9 ± 0.3 µM
- Influenza A Virus Δlgmax [15]: 0.5
- CC50 at 66 h [10]: 440 µM
- IC50 [11]: > 7.5 µM
- IC50 [12]: 7 ± 1.9 µM
- IC50 [3]: 4.5 ± 1.8 µM
- IC50 [13]: 1.3 ± 0.2 µM
- IC50 [14]: > 7.5 µM
- ROS generation [16]: significantly increased ROS generation
- Extracellular HBV DNA (Δlog10) [4]: significantly reduced levels of virion production
- log reduction at 1 µM [4, 17]: 2.52 ± 0.36
- log reduction at 10 µM [4, 17]: 2.31 ± 0.29
- log reduction at 1 µM [4, 18]: < 0.5
- log reduction at 10 µM [4, 18]: 0.53 ± 0.31
